The values below come from PubChem BioAssay AID1919003 (Molecular Pharmacology Branch, DTP, NCI, 2023).

The subject of the experiment is 786-0 complex spheroids with HUVEC/MSC, growth % test/control. Description: Anticancer human tumor 786-0 cell line growth inhibition [AhR].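 For all read-outs here: compound exposure lasted seven days before the read-out.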 As to conditions: for viability, T/C: stronger effect = lower value. Put shortly: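 Spheroids combined tumor cells with HUVEC endothelial cells and human MSCs as stroma. AhR antagonists were paired with standard or investigational drugs, each dosed in half-log steps down from near clinical Cmax, or from 10 microM where Cmax was unknown.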

[1] abbreviates: curve of first compound, second compound 0.1 µM.
[2] abbreviates: curve of first compound, second compound 0.316 µM.
Where [3] appears, read: curve of first compound, second compound 1 µM.
The mark [4] stands for this setting: curve of first compound, second compound 3.16 µM.
Where [5] appears, read: curve of first compound, second compound 10 µM.
[6] abbreviates: second compound 0.1 µM, first compound 0.000949 µM.
Setting [7] is: second compound 0.1 µM, first compound 0.003 µM.
Where [8] appears, read: second compound 0.1 µM, first compound 0.00949 µM.
Where [9] appears, read: second compound 0.1 µM, first compound 0.03 µM.
The mark [10] stands for this setting: second compound 0.1 µM, first compound 0.0949 µM.
The mark [11] stands for this setting: second compound 0.1 µM, first compound 0.3 µM.
Where [12] appears, read: second compound 0.316 µM, first compound 0.000949 µM.
Setting [13] is: second compound 0.316 µM, first compound 0.003 µM.
The mark [14] stands for this setting: second compound 0.316 µM, first compound 0.00949 µM.
Setting [15] is: second compound 0.316 µM, first compound 0.03 µM.
[16] abbreviates: second compound 0.316 µM, first compound 0.0949 µM.
Setting [17] is: second compound 0.316 µM, first compound 0.3 µM.
[18] abbreviates: second compound 1 µM, first compound 0.000949 µM.
The mark [19] stands for this setting: second compound 1 µM, first compound 0.003 µM.
The mark [20] stands for this setting: second compound 1 µM, first compound 0.00949 µM.
Setting [21] is: second compound 1 µM, first compound 0.03 µM.
The mark [22] stands for this setting: second compound 1 µM, first compound 0.0949 µM.
The mark [23] stands for this setting: second compound 1 µM, first compound 0.3 µM.
Where [24] appears, read: second compound 3.16 µM, first compound 0.000949 µM.
Where [25] appears, read: second compound 3.16 µM, first compound 0.003 µM.
Setting [26] is: second compound 3.16 µM, first compound 0.00949 µM.
Where [27] appears, read: second compound 3.16 µM, first compound 0.03 µM.
Setting [28] is: second compound 3.16 µM, first compound 0.0949 µM.
The mark [29] stands for this setting: second compound 3.16 µM, first compound 0.3 µM.
[30] abbreviates: second compound 10 µM, first compound 0.000949 µM.
Where [31] appears, read: second compound 10 µM, first compound 0.003 µM.
[32] abbreviates: second compound 10 µM, first compound 0.00949 µM.
[33] abbreviates: second compound 10 µM, first compound 0.03 µM.
The mark [34] stands for this setting: second compound 10 µM, first compound 0.0949 µM.
Setting [35] is: second compound 10 µM, first compound 0.3 µM.

Molecules are shown by their SMILES. Where “and” joins values, the source holds several entries; their conditions need not be identical. Equal values may be shown once.

A word on the IC50: it is the point on the concentration scale where inhibition reaches its midpoint. Broadly, the viability, T/C is the result in the treated group divided by that in the control group, in per cent. With `CC(C)CC(NC(=O)C(Cc1ccccc1)NC(=O)c1cnccn1)B(O)O` (centres undefined) + CC(CO)NC(=O)c1cc(-c2ccc(Cl)cc2)nn(-c2cnn(C)c2)c1=O, the half-inhibitory concentration (IC50) under setting [1] stood at 7.71 nM; the IC50 under setting [2] came to 8.36 nM; the IC50 under setting [3] amounted to 8.49 nM; the IC50 under setting [4] worked out at 7.94 nM; the IC50 under setting [5] came out at 7.88 nM. Moreover, the viability, T/C by setting is: under setting [6], 108%; under setting [7], 103%; under setting [8], 38.4%; under setting [9], 0.34%; under setting [10], 0.27%; under setting [11], 0.18%. For the same compound, the viability, T/C under setting [12] was 114%; the viability, T/C under setting [13] is 117%; the viability, T/C under setting [14] was 41.9%; the viability, T/C under setting [15] was 0.39%; the viability, T/C under setting [16] is 0.19%; the viability, T/C under setting [17] is 0.19%. Besides, the viability, T/C is 112% under setting [18]; 112% under setting [19]; 43.3% under setting [20]; 0.56% under setting [21]; 0.17% under setting [22]; 0.33% under setting [23]. Moreover, the viability, T/C was 117% under setting [24]; 118% under setting [25]; 37.6% under setting [26]; 1.26% under setting [27]; 0.23% under setting [28]; 0.25% under setting [29]. For the same compound, the viability, T/C is, setting by setting: under setting [30], 120%; under setting [31], 127%; under setting [32], 35.9%; under setting [33], 1.88%; under setting [34], 0.9%; under setting [35], 0.37%.
In the case of `O=C(C=Cc1cccc(S(=O)(=O)Nc2ccccc2)c1)NO` + Cc1ccccc1N=Nc1ccc(NC(=O)c2ccnn2C)c(C)c1, the IC50 is, setting by setting: under setting [1], 6060 nM; under setting [2], 6080 nM; under setting [3], 6300 nM; under setting [4], 5700 nM; under setting [5], 4610 nM. Besides, the viability, T/C runs as follows: (second compound 0.1 µM, first compound 0.0316 µM) 89.2%; (second compound 0.1 µM, first compound 0.1 µM) 103%; (second compound 0.1 µM, first compound 0.316 µM) 88.4%; (second compound 0.1 µM, first compound 1 µM) 94.3%; (second compound 0.1 µM, first compound 3.16 µM) 87.7%; (second compound 0.1 µM, first compound 10 µM) 20.9%. Besides, the viability, T/C was 100% (second compound 0.316 µM, first compound 0.0316 µM); 97.1% (second compound 0.316 µM, first compound 0.1 µM); 101% (second compound 0.316 µM, first compound 0.316 µM); 101% (second compound 0.316 µM, first compound 1 µM); 86.4% (second compound 0.316 µM, first compound 3.16 µM); 22.1% (second compound 0.316 µM, first compound 10 µM). For the same compound, the viability, T/C is, setting by setting: (second compound 1 µM, first compound 0.0316 µM) 98.2%; (second compound 1 µM, first compound 0.1 µM) 100%; (second compound 1 µM, first compound 0.316 µM) 106%; (second compound 1 µM, first compound 1 µM) 93.5%; (second compound 1 µM, first compound 3.16 µM) 90.7%; (second compound 1 µM, first compound 10 µM) 22.5%. Further, the viability, T/C is, setting by setting: (second compound 3.16 µM, first compound 0.0316 µM) 85%; (second compound 3.16 µM, first compound 0.1 µM) 91.4%; (second compound 3.16 µM, first compound 0.316 µM) 85.8%; (second compound 3.16 µM, first compound 1 µM) 81.9%; (second compound 3.16 µM, first compound 3.16 µM) 80%; (second compound 3.16 µM, first compound 10 µM) 21.4%. Moreover, the viability, T/C is 93.5% (second compound 10 µM, first compound 0.0316 µM); 87.2% (second compound 10 µM, first compound 0.1 µM); 85.9% (second compound 10 µM, first compound 0.316 µM); 85.5% (second compound 10 µM, first compound 1 µM); 67.3% (second compound 10 µM, first compound 3.16 µM); 14.2% (second compound 10 µM, first compound 10 µM).
As for `CC1COCCN1c1cc(-c2ccnn2C)c2ccnc(-c3ccn[nH]3)c2n1` (centres undefined), the viability, T/C by setting is: (compound 0.00316 µM) 104% and 102% and 103%; (compound 0.01 µM) 103% and 104% and 94.9%; (compound 0.0316 µM) 101% and 104% and 88.6%; (compound 0.1 µM) 56.4% and 92% and 57.7%; (compound 0.316 µM) 16.5% and 26.5% and 11.5%; (compound 1 µM) 4.64% and 9.13% and 3.92%. Moreover, the IC50 (curve of compound) is 123 nM and 209 nM and 118 nM.
In the case of `O=C(c1cc(Cc2n[nH]c(=O)c3ccccc23)ccc1F)N1CCN(C(=O)C2CC2)CC1`, the viability, T/C is, setting by setting: (compound 0.0316 µM) 111% and 97.5% and 96.3%; (compound 0.1 µM) 104% and 99.7% and 103%; (compound 0.316 µM) 112% and 103% and 102%; (compound 1 µM) 108% and 109% and 104%; (compound 3.16 µM) 109% and 107% and 104%; (compound 10 µM) 107% and 98% and 91.6%. For the setting “curve of compound”, the IC50 was > 10000 nM.
For `CCc1c2c(nc3ccc(O)cc13)-c1cc3c(c(=O)n1C2)COC(=O)[C@]3(O)CC` + Cc1cncc(-c2nc(NCCc3c[nH]c4ccccc34)c3ncn(C(C)C)c3n2)c1, the IC50 was 6.02 nM under setting [1]; 6.06 nM under setting [2]; 5.1 nM under setting [3]; 1.52 nM under setting [4]; < 0.949 nM under setting [5]. The viability, T/C was 106% under setting [6]; 93.5% under setting [7]; 21.5% under setting [8]; 5.21% under setting [9]; 2.42% under setting [10]; 2.24% under setting [11]. Besides, the viability, T/C reads like this: under setting [12], 112%; under setting [13], 95.4%; under setting [14], 21%; under setting [15], 6.67%; under setting [16], 3.31%; under setting [17], 2.09%. In addition, the viability, T/C was 99.5% under setting [18]; 79.5% under setting [19]; 15.4% under setting [20]; 5.63% under setting [21]; 2.53% under setting [22]; 3.71% under setting [23]. The viability, T/C reads like this: under setting [24], 65.7%; under setting [25], 27.2%; under setting [26], 4.92%; under setting [27], 2.43%; under setting [28], 1.6%; under setting [29], 1.37%. Besides, the viability, T/C under setting [30] was 1.65%; the viability, T/C under setting [31] is 0.61%; the viability, T/C under setting [32] was 0.43%; the viability, T/C under setting [33] was 0.38%; the viability, T/C under setting [34] is 0.28%; the viability, T/C under setting [35] was 0.36%.
